This data set is described as follows: potentiometric solubility-pH profile titration (pSol). The format is physicochemical. The settings on record: FIG. 8. An excerpt:
The above described titration e.g. of a weak base B from high to low pH-values is used for potentiometric determination of solubility profiles according to the so-called “pSol method” (see e.g. Avdeef, A., 1998, loc. cit.). However, in pSol titrations the phenomenon of a “perfect” buffer system is not encountered frequently because in order to obtain good titration results it is advisable to use only small amounts of the compound under investigation. This leads to a situation where the whole amount of the compound is dissolved before the maximal effective concentration corresponding to point 2 in FIG. 1 is reached. This is illustrated in FIG. 3, where reduction of the pH-value leads along the solubility profile until reaching the point denoted as 2′ in FIG. 3. […] Therefore, the total concentration of the compound remains constant at a value CT.
Measurements of solubility-pH profiles were carried out on a “pSol” apparatus (see e.g. Avdeef, A., 2001, loc. cit.). The potentiometric solubility measurement with the pSol apparatus takes as input parameters the weighted amount of the said compound, the volume of the solution, the measured pKa and the measured (or calculated) octanol/water partition coefficient, logP. […]

SMILES strings stand for the structures.

Consider `COc1ccc2c3c1O[C@H]1[C@@H](O)C=C[C@H]4[C@@H](C2)N(C)CC[C@@]341` [codeine], for which the “pH at which the precipitation begins” value is recorded as “about 7” (total concentration about 58 mg/mL for the titration) and “about 8” (total concentration of about 13 mg/mL for the titration).
